Legend:
Details in all cases: treatment: drug + dasatinib (fixed dose, not stated); 5 days
SN12C [1] = assay: AUC of dose-response viability curve, drug + dasatinib, normalised to DMSO (arbitrary (AUC of normalised viability)); higher = less growth inhibition
Experimental: (§1)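 Primary HTS combination arm: 8 RCC cell lines treated with 8 doses (up to 10 uM) of each library drug plus a fixed dose of dasatinib (dose not stated) for 5 days; viability read by CellTiter-Glo and normalised to DMSO. GI50 was fitted with XLfit, AUC is the area under the dose-response curve, and minimum viability is the lowest fraction of DMSO viability across doses.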

TK-10 [2] = assay: as above
Experimental: as §1

786-O [3] = assay: as above
Experimental: as §1

UO-31 [4] = assay: as above
Experimental: as §1

CAKI-1 [5] = assay: as above
Experimental: as §1

A498 [6] = assay: as above
Experimental: as §1

ACHN [7] = assay: as above
Experimental: as §1

769-P [8] = assay: as above
Experimental: as §1

SN12C [9] = assay: GI50 of drug in presence of dasatinib; higher = less potent
Experimental: as §1

TK-10 [10] = assay: as above
Experimental: as §1

786-O [11] = assay: as above
Experimental: as §1

UO-31 [12] = assay: as above
Experimental: as §1

CAKI-1 [13] = assay: as above
Experimental: as §1

A498 [14] = assay: as above
Experimental: as §1

769-P [15] = assay: as above
Experimental: as §1

SN12C [16] = assay: minimum viability across doses, drug + dasatinib, relative to DMSO (fraction); higher = less growth inhibition
Experimental: as §1

TK-10 [17] = assay: as above
Experimental: as §1

786-O [18] = assay: as above
Experimental: as §1

UO-31 [19] = assay: as above
Experimental: as §1

CAKI-1 [20] = assay: as above
Experimental: as §1

A498 [21] = assay: as above
Experimental: as §1

ACHN [22] = assay: as above
Experimental: as §1

769-P [23] = assay: as above
Experimental: as §1

ACHN [24] = assay: GI50 of drug in presence of dasatinib; higher = less potent
Experimental: as §1

Row | Structure (SMILES) | AUC of dose-response viability curve (SN12C [1]) | AUC of dose-response viability curve (TK-10 [2]) | AUC of dose-response viability curve (786-O [3]) | AUC of dose-response viability curve (UO-31 [4]) | AUC of dose-response viability curve (CAKI-1 [5]) | AUC of dose-response viability curve (A498 [6]) | AUC of dose-response viability curve (ACHN [7]) | AUC of dose-response viability curve (769-P [8]) | GI50 of drug (SN12C [9]) [µM] | GI50 of drug (TK-10 [10]) [µM] | GI50 of drug (786-O [11]) [µM] | GI50 of drug (UO-31 [12]) [µM] | GI50 of drug (CAKI-1 [13]) [µM] | GI50 of drug (A498 [14]) [µM] | GI50 of drug (769-P [15]) [µM] | minimum viability across doses (SN12C [16]) | minimum viability across doses (TK-10 [17]) | minimum viability across doses (786-O [18]) | minimum viability across doses (UO-31 [19]) | minimum viability across doses (CAKI-1 [20]) | minimum viability across doses (A498 [21]) | minimum viability across doses (ACHN [22]) | minimum viability across doses (769-P [23]) | GI50 of drug (ACHN [24]) [µM]
1 | Cc1ccc(-n2nc(C(C)(C)C)cc2NC(=O)Nc2ccc(OCCN3CCOCC3)c3ccccc23)cc1 [BIRB 796 (Doramapimod)] + Cc1nc(Nc2ncc(C(=O)Nc3c(C)cccc3Cl)s2)cc(N2CCN(CCO)CC2)n1 [dasatinib] | 2.4 | 2.49 | 2.63 | 3.79 | 2.29 | 3.07 | 1.78 | 2.29 | > 10 | > 10 | > 10 | > 10 | > 10 | > 10 | > 10 | 0.659 | 0.66 | 0.639 | 0.946 | 0.567 | 0.755 | 0.439 | 0.537 | –
2 | CCn1c(N)c(C(=O)NC)c(=O)c2ccc(C#C[C@@](C)(O)COC)nc21 + Cc1nc(Nc2ncc(C(=O)Nc3c(C)cccc3Cl)s2)cc(N2CCN(CCO)CC2)n1 [dasatinib] | 2.52 | 2.72 | 2.59 | 4.43 | 2.43 | 3.2 | 1.87 | 2.74 | > 10 | > 10 | > 10 | > 10 | > 10 | > 10 | > 10 | 0.684 | 0.721 | 0.589 | 0.884 | 0.588 | 0.773 | 0.432 | 0.671 | –
3 | Cn1cnc(N)c2ncnc1-2 [3-Methyladenine] + Cc1nc(Nc2ncc(C(=O)Nc3c(C)cccc3Cl)s2)cc(N2CCN(CCO)CC2)n1 [dasatinib] | 2.57 | 2.57 | 2.32 | 4.32 | 2.47 | 3.49 | 1.56 | 2.57 | > 10 | > 10 | > 10 | > 10 | > 10 | > 10 | > 10 | 0.703 | 0.691 | 0.542 | 1.03 | 0.673 | 0.947 | 0.329 | 0.649 | –
4 | COc1cc(N2CCC(N3CCN(C)CC3)CC2)ccc1Nc1ncc(Cl)c(Nc2ccccc2S(=O)(=O)C(C)C)n1 [TAE684 (NVP-TAE684)] + Cc1nc(Nc2ncc(C(=O)Nc3c(C)cccc3Cl)s2)cc(N2CCN(CCO)CC2)n1 [dasatinib] | 1.82 | 2.06 | 1.55 | 2.04 | 1.51 | 2.64 | 1.15 | 1.83 | 0.427 | 0.64 | < 0.003 | – | 0.224 | 2.87 | – | 0.0423 | 0.206 | 0.0739 | 0.0115 | 0.0167 | 0.348 | 0.0286 | 0.23 | 0.0373
5 | CCN(CCO)CCCOc1ccc2c(Nc3cc(CC(=O)Nc4cccc(F)c4)n[nH]3)ncnc2c1 [Barasertib (AZD1152-HQPA)] + Cc1nc(Nc2ncc(C(=O)Nc3c(C)cccc3Cl)s2)cc(N2CCN(CCO)CC2)n1 [dasatinib] | 2.41 | 2.65 | 1.61 | 3.22 | 2.04 | 3.31 | 1.83 | 2.09 | > 10 | > 10 | 0.113 | > 10 | 0.678 | > 10 | 1.23 | 0.628 | 0.685 | 0.157 | 0.842 | 0.402 | 0.841 | 0.417 | 0.346 | –
6 | C[C@@H]1CCN(C(=O)CC#N)C[C@@H]1N(C)c1ncnc2[nH]ccc12 + Cc1nc(Nc2ncc(C(=O)Nc3c(C)cccc3Cl)s2)cc(N2CCN(CCO)CC2)n1 [dasatinib] | 2.51 | 2.59 | 3.03 | 4.82 | 2.53 | 3.91 | 1.62 | 2.6 | > 10 | > 10 | > 10 | > 10 | > 10 | > 10 | > 10 | 0.695 | 0.7 | 0.743 | 1.23 | 0.685 | 1 | 0.363 | 0.664 | –

Reference: the supplement of paper PMC8149375
